Several values for one entry are separate records, joined by “and”; a condition that tells them apart may be missing. Identical values can stand only once. Like-named read-outs stand apart in the source and are kept apart here.
How the values were obtained:
[1] = tested on: acetic acid-induced writhing in ICR mice; test: animal or person; format: in vivo, mouse; conditions: for ED50: Mus musculus, ip, read-out: Writhing Test ED50
DRG neurons = test: cells; format: cell-based; conditions: Rattus norvegicus, DRG neuron, 10 min, read-out: 45Ca Influx EC50
[2] = tested on: PBQ-induced writhing in ICR mice; test: animal or person; format: in vivo, mouse; conditions: for ED50: Mus musculus, read-out: Writhing Test ED50; for ED50 / Writhing Test ED50: ip; for Relative Potency (Writhing Test) / Writhing Test ED50: mouse, in vivo
[3] = molecular target: T1, vanilloid receptor (rat spinal cord membrane preparations) (Rattus norvegicus, UniProt O35433); test: biochemical; format: binding
T1 construct: determined on membrane preparations from rat spinal cord; from tissue; host or cells: rat spinal cord membranes
T1 sequence (O35433 whole entry): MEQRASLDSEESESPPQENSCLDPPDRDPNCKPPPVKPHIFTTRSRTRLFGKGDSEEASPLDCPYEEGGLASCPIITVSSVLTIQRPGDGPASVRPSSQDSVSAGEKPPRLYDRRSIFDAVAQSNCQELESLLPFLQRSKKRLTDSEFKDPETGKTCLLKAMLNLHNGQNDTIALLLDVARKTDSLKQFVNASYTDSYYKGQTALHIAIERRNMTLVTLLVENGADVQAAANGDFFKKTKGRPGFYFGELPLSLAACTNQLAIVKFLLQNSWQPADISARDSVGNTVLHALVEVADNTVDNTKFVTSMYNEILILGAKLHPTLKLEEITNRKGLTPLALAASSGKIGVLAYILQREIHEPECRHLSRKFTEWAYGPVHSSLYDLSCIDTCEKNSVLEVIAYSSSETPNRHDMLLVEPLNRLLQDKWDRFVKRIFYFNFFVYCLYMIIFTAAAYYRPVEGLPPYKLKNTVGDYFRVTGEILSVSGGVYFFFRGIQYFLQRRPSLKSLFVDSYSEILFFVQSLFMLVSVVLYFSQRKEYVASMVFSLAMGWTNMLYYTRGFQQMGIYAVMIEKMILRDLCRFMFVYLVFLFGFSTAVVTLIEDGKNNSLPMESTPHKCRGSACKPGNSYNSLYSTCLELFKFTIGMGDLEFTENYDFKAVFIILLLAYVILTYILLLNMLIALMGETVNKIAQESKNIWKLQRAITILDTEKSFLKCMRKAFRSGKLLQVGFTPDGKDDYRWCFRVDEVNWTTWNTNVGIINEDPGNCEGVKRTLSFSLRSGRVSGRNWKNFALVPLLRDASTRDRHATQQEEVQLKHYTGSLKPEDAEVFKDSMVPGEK

[4] = tested on: TPA-induced ear edema in ICR mice; conditions: mouse, in vivo
[5] = molecular target: T2, CAP-activated channels in cultured neonatal rat dorsal root ganglion (DRG) neurons (Rattus norvegicus, UniProt O35433); format: cell-based; design: key: + = CAP; ++ = 10 CAP; +++ = 100 CAP
T2 construct: extracellular application of the compounds to cultured neonatal rat dorsal root ganglion (DRG) neurons; endogenous in cells; host or cells: primary cultured DRG neurons from 1 or 2 day old neonatal rats
T2 sequence (O35433 whole entry): as above

[6] = tested on: rat eye (eye-wiping response); conditions: in vivo

For `COc1cc(CC(=O)NCC(COC(=O)C(C)(C)C)Cc2ccc(C)c(C)c2)ccc1OCCN` (stereo not shown) [28a, 2,2-Dimethyl Propionic Acid 2-({2-[4-(2-Aminoethoxy)-3-methoxyphenyl]acetylamino}methyl)-3-(3,4-dimethylphenyl)propyl Ester], the ED50 [1] was 0.00096 mg/kg, the “analgesic activity (in words)” value ([1]; mouse, in vivo) was “the most potent one and more potent than DA-5018” and the EC50 (DRG neurons) was 1570 ± 230 nM.
Work on `COc1cc(CNC(=S)NCC(COC(=O)C(C)(C)C)Cc2ccc(C(C)(C)C)cc2)ccc1OCCN` (stereo not shown) [36b, 2,2-Dimethyl Propionic Acid 2-{3-[4-(2-Aminoethoxy)-3-methoxybenzyl]thioureido Methyl}-3-(4-t-butylphenyl)propyl Ester] yielded an ED50 [1] of 0.0482 mg/kg and an EC50 (DRG neurons) of 377 ± 67 nM.
For `COc1ccc2c(c1)c(CC(=O)O)c(C)n2C(=O)c1ccc(Cl)cc1` [Indomethacin, reference compound], the ED50 [2] was 0.4 mg/kg and the “Relative Potency (Writhing Test)” value [2] was 0.75.
With “2-(3,4-Dimethylbenzyl)-3-{[(4-hydroxy-3-methoxybenzyl)amino]carbothioyl}propyl benzoate [7b-V]” the Ki ([3]; read-out: Affinities (Ki)) was 409 nM, the “Relative Potency (Writhing Test)” value [2] was 43 and the “Writhing Test ED50” value [2] was 0.007 mg/kg. For the same compound, the “Ear Edema Assay ID50” value [4] was 50 μg/ear, the “Relative Potency (Ear Edema Assay)” value [4] was 0.06 and the Activations [5] was “++”.
`COc1cc(CNC(=S)NCC(COC(=O)C(C)C)Cc2ccccc2)ccc1O` (stereo not shown) [7a-II, 2-Benzyl-3-{[(4-hydroxy-3-methoxybenzyl)amino]carbothioyl}propyl 2-Methyl Propanoate] was tested, and the Ki [3] was 133 nM, the ED50 [2] was 0.015 mg/kg and the “Relative Potency (Writhing Test)” value [2] was 20. The Activations [5] was “+++”.
For “2-Benzyl-3-{[(4-hydroxy-3-methoxybenzyl)amino]carbothioyl}propyl Benzoate [7a-V]”, the “Relative Potency (Writhing Test)” value [2] was 15, the “Writhing Test ED50” value [2] was 0.02 mg/kg and the “Ear Edema Assay ID50” value [4] was 20 μg/ear. The “Relative Potency (Ear Edema Assay)” value [4] was 0.15, the “% Reduction of response to 0.001% capsaicin” value (shortened to “% Reduction of response”) [6] was 0 (0.1) % and the Activations [5] was “++”.
For “2-(4-t-Butylbenzyl)-3-{[(4-hydroxy-3-methoxybenzyl)amino]carbothioyl}propyl Pivalate [7d-I]”, the “times more potent than CAP (receptor binding)” value [3] was ~490 times, the “Relative Potency (Writhing Test)” value [2] was 300 and the “Writhing Test ED50” value [2] was 0.001 mg/kg. For the same compound, the “Ear Edema Assay ID50” value [4] was 5 μg/ear, the “Relative Potency (Ear Edema Assay)” value [4] was 0.6 and the “% Reduction of response” value [6] was 0 (0.1) %. For the same compound, the “MPP: moderate pain-producing potency” value [6] was 0.003%, the “RPP: relative pain-producing potency” value [6] was 10 and the Activations [5] was “++”.
For “2-Benzyl-3-{[(4-hydroxy-3-methoxybenzyl)amino]carbothioyl}propyl Hexanoate [7a-III]”, the Ki ([3]; read-out: Affinities (Ki)) was 632 nM, the “Relative Potency (Writhing Test)” value [2] was 60 and the “Writhing Test ED50” value [2] was 0.005 mg/kg. For the same compound, the Activations [5] was “++”.
For `COCOc1ccc(CNC(=S)NCC(COC(=O)C(C)(C)C)Cc2ccc(C)c(C)c2)cc1OC` (stereo not shown) [7b-Ia], the Ki [3] was 876 nM.
`COc1cc(CNC(=S)NCC(COC(=O)C(C)(C)C)Cc2ccc(C(C)(C)C)cc2)ccc1OCC(=O)O` (stereo not shown) [19b, 2,2-Dimethyl-propionic Acid 3-(4-t-Butyl-phenyl)-2-[3-(4-carboxymethoxy-3-methoxy-benzyl)-thioureidomethyl]-propyl Ester] gave an ED50 [1] of 0.365 mg/kg and an EC50 (DRG neurons) of 12300 ± 1580 nM.
With “2-(3,4-Dimethylbenzyl)-3-{[(4-hydroxy-3-methoxybenzyl)amino]carbothioyl}propyl 3,4-Dimethylbenzoate [7b-VI]” the Ki ([3]; read-out: Affinities (Ki)) was 184 nM, the “Relative Potency (Writhing Test)” value [2] was 150 and the “Writhing Test ED50” value [2] was 0.002 mg/kg. For the same compound, the “Ear Edema Assay ID50” value [4] was 50 μg/ear, the “Relative Potency (Ear Edema Assay)” value [4] was 0.06 and the Activations [5] was “+++”.
For `COc1cc(CNC(=S)NCC(COCc2ccccc2)Cc2ccc(Cl)cc2)ccc1O` (stereo not shown) [9c, N-[3-Benzyloxy-2-(4-chlorobenzyl)propyl]-N′-(4-hydroxy-3-methoxybenzyl)thiourea], the Ki [3] was 659 nM and the Activations [5] was “++”.
In the case of `CC(=O)Oc1ccccc1C(=O)O` [Aspirin, reference compound], the ED50 [2] is reported as 3.5 mg/kg and the “Relative Potency (Writhing Test)” value [2] is reported as 0.086.
For “2-Benzyl-3-{[(4-hydroxy-3-methoxybenzyl)amino]carbothioyl}propyl Pivalate [7a-I]”, the “Relative Potency (Writhing Test)” value [2] was 150, the “Writhing Test ED50” value [2] was 0.002 mg/kg and the “Ear Edema Assay ID50” value [4] was 25 μg/ear. The “Relative Potency (Ear Edema Assay)” value [4] was 0.12 and the Activations [5] was “+++”.
With `COc1cc(CNC(=O)CCCC/C=C/C(C)C)ccc1O` [Capsaicin, reference compound] the ED50 [2] was 0.3 mg/kg, the “Ear Edema Assay ID50” value [4] was 3 μg/ear and the “antiinflammatory activity in the TPA ear edema assay (in words)” value [4] was “strong anti-edema activity”. For the same compound, the “% Reduction of response” value [6] was 55 (0.1) % and 35 (0.01) %, the “MPP: moderate pain-producing potency” value [6] was 0.0003% and the “response to 0.001% CAP challenge 6 h posttreatment (in words)” value [6] was “attenuated eye-wiping response”. It also gave an EC50 (DRG neurons) of 435 nM.
`COc1cc(CNC(=S)NCC(COC(=O)C(C)(C)C)Cc2ccc(C)c(C)c2)ccc1OCC(=O)O` (stereo not shown) [19a, 2,2-Dimethyl-propionic Acid 2-[3-(4-Carboxymethoxy-3-methoxy-benzyl)-thioureidomethyl]-3-(3,4-dimethyl-phenyl)-propyl Ester] was tested, and the ED50 [1] was 0.431 mg/kg and the EC50 (DRG neurons) was 7770 ± 800 nM.
“2-(4-Chlorobenzyl)-3-{[(4-hydroxy-3-methoxybenzyl)amino]carbothioyl}propyl Pivalate [7c-I]” was tested, and the Ki ([3]; read-out: Affinities (Ki)) was 54.4 nM, the “Relative Potency (Writhing Test)” value [2] was 60 and the “Writhing Test ED50” value [2] was 0.005 mg/kg. For the same compound, the “Ear Edema Assay ID50” value [4] was 22 μg/ear, the “Relative Potency (Ear Edema Assay)” value [4] was 0.14 and the Activations [5] was “++”.
With “2-(4-t-Butylbenzyl)-3-{[(4-hydroxy-3-methoxybenzyl)amino]carbothioyl}propyl Benzoate [7d-V]” the Ki ([3]; read-out: Affinities (Ki)) was 60.2 nM, the “Relative Potency (Writhing Test)” value [2] was 200 and the “Writhing Test ED50” value [2] was 0.0015 mg/kg. The “Ear Edema Assay ID50” value [4] was 30 μg/ear, the “Relative Potency (Ear Edema Assay)” value [4] was 0.1 and the Activations [5] was “++”.
With `COCOc1ccc(CNC(=S)NCC(COC(=O)C(C)(C)C)Cc2ccccc2)cc1OC` (stereo not shown) [compound 10] the Ki [3] was 146 nM and the Activations [5] was “++”.
With “2-Benzyl-3-{[(4-hydroxy-3-methoxybenzyl)amino]carbothioyl}propyl Stearate [7a-IV]” the Ki ([3]; read-out: Affinities (Ki)) was 1870 nM, the “Relative Potency (Writhing Test)” value [2] was 15 and the “Writhing Test ED50” value [2] was 0.02 mg/kg. The Activations [5] was “+”.
With “2-(3,4-Dimethylbenzyl)-3-{[(4-hydroxy-3-methoxybenzyl)amino]carbothioyl}propyl Pivalate [7b-I]” the “times more potent than CAP (receptor binding)” value [3] was “ca. 280 times”, the “Relative Potency (Writhing Test)” value [2] was 600 and the “Writhing Test ED50” value [2] was 0.0005 mg/kg. The “Ear Edema Assay ID50” value [4] was 18 μg/ear, the “Relative Potency (Ear Edema Assay)” value [4] was 0.17 and the “MPP: moderate pain-producing potency” value [6] was 0.002%. The “RPP: relative pain-producing potency” value [6] was 15 and the Activations [5] was “++”.
In the case of `CCCCCCCC/C=C\CCCCCCCC(=O)NCc1ccc(O)c(OC)c1` [Olvanil, reference compound], the ED50 [1] is reported as 0.0174 mg/kg, the ED50 [2] is reported as 0.03 mg/kg and the “Relative Potency (Writhing Test)” value [2] is reported as 10. For the same compound, the “Ear Edema Assay ID50” value [4] was 30 μg/ear, the “Relative Potency (Ear Edema Assay)” value [4] was 0.1 and the “antiinflammatory activity in the TPA ear edema assay (in words)” value [4] was “weak topical activity”. The “% Reduction of response” value [6] was 0.1% and the “MPP: moderate pain-producing potency” value [6] was “WP^c”.
In the case of `COc1cc(CNC(=S)NCC(COC(=O)C(C)(C)C)Cc2ccc(C)c(C)c2)ccc1OCCN` (stereo not shown) [36a, 2,2-Dimethyl Propionic Acid 2-{3-[4-(2-Aminoethoxy)-3-methoxybenzyl]thioureido Methyl}-3-(3,4-dimethylphenyl)propyl Ester], the ED50 [1] is reported as 0.014 mg/kg and the EC50 (DRG neurons) is reported as 83 ± 12 nM.
Work on `COc1cc(CC(=O)NCC(COC(=O)C(C)(C)C)Cc2ccc(C(C)(C)C)cc2)ccc1OCCN` (stereo not shown) [28b, 2,2-Dimethyl Propionic Acid 2-({2-[4-(2-Aminoethoxy)-3-methoxyphenyl]acetylamino}methyl)-3-(4-t-butylphenyl)propyl Ester] yielded an ED50 [1] of 0.00812 mg/kg and an EC50 (DRG neurons) of 878 ± 170 nM.
In the case of “2-(4-Chlorobenzyl)-3-{[(4-hydroxy-3-methoxybenzyl)amino]carbothioyl}propyl Benzoate [7c-V]”, the “Relative Potency (Writhing Test)” value [2] is reported as 25, the “Writhing Test ED50” value [2] is reported as 0.012 mg/kg and the “Ear Edema Assay ID50” value [4] is reported as 17 μg/ear. For the same compound, the “Relative Potency (Ear Edema Assay)” value [4] was 0.18 and the Activations [5] was “++”.
With `COc1cc(CNC(=S)NCC(COCc2ccccc2)Cc2ccccc2)ccc1O` (stereo not shown) [9a, N-[2-Benzyl-3-(benzyloxy)propyl]-N′-(4-hydroxy-3-methoxybenzyl)thiourea] the Ki [3] was 148 nM and the Activations [5] was “++”.
“(S)-2-Benzyl-3-{[(4-hydroxy-3-methoxybenzyl)amino]carbothioyl}propyl Pivalate [(S)-7a-I]” was tested, and the “Relative Potency (Writhing Test)” value [2] was 33, the “Writhing Test ED50” value [2] was 0.009 mg/kg and the Activations [5] was “++”.
In the case of `C=C(C)[C@]12C[C@@H](C)[C@@]34O[C@](Cc5ccccc5)(O[C@@H]1[C@@H]3C=C(COC(=O)Cc1ccc(O)c(OC)c1)C[C@]1(O)C(=O)C(C)=C[C@@H]41)O2` [RTX, Resiniferatoxin, reference compound], the Ki [3] is reported as 0.023 nM, the “Relative Potency (Writhing Test)” value [2] is reported as 30,000 and the “Ear Edema Assay ID50” value [4] is reported as 0.002 μg/ear. For the same compound, the “Relative Potency (Ear Edema Assay)” value [4] was 1,500, the “MPP: moderate pain-producing potency” value [6] was 0.0001% and the “RPP: relative pain-producing potency” value [6] was 300. The “pungency, fold more potent than CAP” value [6] was 3 fold.
In the case of `COc1cc(CNC(=S)NC[C@H](COC(=O)C(C)(C)C)Cc2ccccc2)ccc1O` [(R)-7a-I], the Ki [3] is reported as 18.4 nM, the ED50 [2] is reported as 0.008 mg/kg and the “Relative Potency (Writhing Test)” value [2] is reported as 38. For the same compound, the Activations [5] was “+++”.
For `CN1CC[C@]23c4c5ccc(O)c4O[C@H]2[C@@H](O)C=C[C@H]3[C@H]1C5` [Morphine, reference compound], the ED50 [2] was 1 mg/kg and the “Relative Potency (Writhing Test)” value [2] was 0.3.
